Measurements taken from patent US6750228B1, “Aromatic sulfone hydroxamic acid metalloprotease inhibitor” (priority 1997, dated 2004).
Where a name gives a salt, the structure may show the parent alone. Read-outs that look alike come from different tables or passages of the source.

Experiments:
Test in all cases: biochemical
MMP-1 = molecular target: T1, MMP-1 (Homo sapiens, UniProt P03956); conditions: read-out: MMP-1 IC50
T1 construct: made in house; host or cells: transfected HT-1080 cells (provided by Dr. Harold Welgus, Washington University)
T1 sequence (P03956 100-469): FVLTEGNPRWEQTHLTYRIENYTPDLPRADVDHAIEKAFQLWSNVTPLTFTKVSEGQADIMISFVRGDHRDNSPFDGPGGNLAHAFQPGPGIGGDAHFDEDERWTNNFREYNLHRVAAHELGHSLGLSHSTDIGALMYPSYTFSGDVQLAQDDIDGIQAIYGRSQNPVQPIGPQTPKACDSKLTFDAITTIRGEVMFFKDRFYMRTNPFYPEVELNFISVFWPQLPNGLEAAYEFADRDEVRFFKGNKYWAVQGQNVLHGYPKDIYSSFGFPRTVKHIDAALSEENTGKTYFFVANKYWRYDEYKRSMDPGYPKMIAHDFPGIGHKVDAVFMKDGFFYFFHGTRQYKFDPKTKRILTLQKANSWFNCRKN
Procedure: (§1) The compounds prepared in the manner described in the Examples above were assayed for activity by an in vitro assay. […] Briefly, 4-aminophenylmercuric acetate (APMA) or trypsin-activated MMPs were incubated with various concentrations of the inhibitor compound at room temperature for 5 minutes.
(§2) The expressed enzyme was purified first over a heparin agarose column and then over a chelating zinc chloride column. The proenzyme was activated by APMA for use in the assay.
(§3) MMP-1 expressed in transfected HT-1080 cells was provided by Dr. Harold Welgus of Washington University, St. Louis, Mo. The enzyme was also activated using APMA and was then purified over a hydroxamic acid column. Dr. Welgus also provided transfected HT-1080 cells that expressed MMP-9. Transfected cells that expressed MMP-2 were provided by Dr. Gregory Goldberg, also of Washington University. Studies with MMP-7 were carried out at pH 7.5 in the presence of 0.02% 2-mercaptoethanol using conditions otherwise similar to those used for the other enzymes. The enzyme was obtaind from a hMMP-7-expressing E. coli clone that was a gift of Dr. Steven Shapiro of Washington University, St. Louis, Mo. Further specifics for preparation and use of these enzymes can be found in the scientific literature describing these enzymes. See, for example, Enzyme Nomenclature, Academic Press, San Diego, Calif. […] The enzyme substrate is a methoxycoumarin-containing polypeptide having the following sequence:
(§4) MCA-ProLeuGlyLeuDpaAlaArgNH2, wherein MCA is methoxycoumarin and Dpa is 3-(2,4-dinitrophenyl)-L-2,3-diaminopropionyl alanine.
(§5) The buffer used for assays contained 100 mM Tris-HCl, 100 mM NaCl, 10 mM CaCl2 and 0.05 percent polyethyleneglycol (23) lauryl ether at a pH value of 7.5. Assays were carried out at room temperature, and dimethyl sulfoxide (DMSO) at a final concentration of 1 percent was used to dissolve inhibitor compound.
(§6) The assayed inhibitor compound in DMSO/buffer solution was compared to an equal amount of DMSO/buffer with no inhibitor as control using Microfluor White Plates (Dynatech). The inhibitor or control solution was maintained in the plate for 10 minutes and the substrate was added to provide a final concentration of 4 μM.
(§7) Inhibition was measured as a reduction in fluorescent intensity as a function of inhibitor concentration, using a Perkin Elmer L550 plate reader. The IC50 values were calculated from those values. The results are set forth in the Inhibition Table A, below, reported in terms of IC50 to three significant figures, where appropriate.

MMP-13 = molecular target: T2, MMP-13 (Homo sapiens, UniProt P45452); conditions: read-out: MMP-13 IC50
T2 construct: made in house; host or cells: baculovirus / insect cells
Procedure: as §1, §2, §3, §4, §5, §6, §7

MMP-2 = molecular target: T3, MMP-2 (Homo sapiens, UniProt P08253)
T3 construct: made in house; provided by Dr. Gregory Goldberg, Washington University
T3 sequence (P08253 110-660): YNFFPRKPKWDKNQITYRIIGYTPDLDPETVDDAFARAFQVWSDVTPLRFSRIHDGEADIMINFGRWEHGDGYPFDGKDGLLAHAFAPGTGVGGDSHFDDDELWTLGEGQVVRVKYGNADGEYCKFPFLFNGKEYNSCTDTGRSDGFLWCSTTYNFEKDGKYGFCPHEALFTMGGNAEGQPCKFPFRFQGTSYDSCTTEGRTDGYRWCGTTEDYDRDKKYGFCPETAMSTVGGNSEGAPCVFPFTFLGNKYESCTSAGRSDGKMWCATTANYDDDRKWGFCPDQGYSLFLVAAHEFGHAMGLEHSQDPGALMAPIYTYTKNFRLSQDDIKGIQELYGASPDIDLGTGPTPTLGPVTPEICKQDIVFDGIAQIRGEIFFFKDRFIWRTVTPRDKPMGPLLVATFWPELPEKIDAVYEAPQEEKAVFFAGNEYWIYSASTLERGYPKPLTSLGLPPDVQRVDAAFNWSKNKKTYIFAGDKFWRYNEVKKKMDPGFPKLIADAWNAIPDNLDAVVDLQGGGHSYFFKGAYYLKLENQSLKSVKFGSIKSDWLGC
Procedure: as §1, §2, §3, §4, §5, §6, §7

[1] = recombinant human MMP-1, MCA peptide substrate 4 μM, pH 7.5, room temperature
[2] = recombinant human MMP-13, MCA peptide substrate 4 μM, pH 7.5, room temperature
[3] = recombinant human MMP-2, MCA peptide substrate 4 μM, pH 7.5, room temperature, read-out: MMP-2 IC50

Row | Compound | IC50 (MMP-1; [1]) [µM] | IC50 (MMP-13; [2]) [µM] | IC50 (MMP-2; [3]) [nM] | further results
1 | CCCNC(=O)C1CCN(c2ccc(S(=O)(=O)C3(C(=O)NO)CCOCC3)cc2)CC1 [Example 57] | > 10 | 0.08 | 2700 | 
2 | COc1ccc(C(=O)C2CCN(c3ccc(S(=O)(=O)C4(C(=O)NO)CCN(C5CC5)CC4)cc3)CC2)cc1 [Example 441] | > 10 | 0.006 | 420 | 
3 | CCCCCN(C)C1CCN(c2ccc(S(=O)(=O)C3(C(=O)NO)CCOCC3)cc2)CC1 [Example 597] | > 10 | 0.67 | 700 | 
4 | O=C(NO)C1(S(=O)(=O)c2ccc(N3CCC(Oc4ccc(Cl)c(Cl)c4)CC3)cc2)CCOCC1 [Example 617] | > 10 | 0.007 | 5.7 | 
5 | CC1CC(C)CN(C(=O)C2CCN(c3ccc(S(=O)(=O)C4(C(=O)NO)CCN(C(=O)CNCc5cccnc5)CC4)cc3)CC2)C1 (centres unmarked) [Example 278] | > 10 | 0.0193 | > 10000 | 
6 | CCc1cccc(C(=O)C2CCN(c3ccc(S(=O)(=O)C4(C(=O)NO)CCOCC4)cc3)CC2)c1 [Example 732] | > 10 | 0.0031 | 590 | 
7 | COc1ccccc1C(=O)C1CCN(c2ccc(S(=O)(=O)C3(C(=O)NO)CCOCC3)cc2)CC1 [Example 655] | > 10 | 0.0373 | 1400 | 
8 | CC1CC(C)CN(C(=O)C2CCN(c3ccc(S(=O)(=O)C4(C(=O)NO)CCN(C(=O)CNCCc5c[nH]cn5)CC4)cc3)CC2)C1 (centres unmarked) [Example 281] | > 10 | 0.105 | > 10000 | 
9 | O=C(NO)C1(S(=O)(=O)c2ccc(N3CCC(OCc4ccc(COCC5CCCC5)cc4)CC3)cc2)CCOCC1 [Example 605] | > 10 | 0.0106 | 2000 | 
10 | O=C(c1ccco1)N1CCC(C(=O)NO)(S(=O)(=O)c2ccc(N3CCC(OCc4ccc(F)cc4)CC3)cc2)CC1 [Example 424] | > 10 | 0.0055 | 80 | 
11 | O=C(Nc1ccccc1Cl)OC1CCN(c2ccc(S(=O)(=O)C3(C(=O)NO)CCOCC3)cc2)CC1 [Example 521] | > 10 | 0.0035 | 50 | 
12 | CCN1CCN(c2ccc(S(=O)(=O)C3(C(=O)NO)CCOCC3)cc2)CC1 [Example 622] | > 10 | 0.5 | 1600 | 
13 | O=C(NO)C1(S(=O)(=O)c2ccc(Oc3ccc(OC(F)(F)F)cc3)cc2)CCN(c2ccncc2)CC1 [Example 391] | 5.4 | 0.0001 | < 0.1 | 
14 | CCOC(=O)CN1CCN(CC(=O)N2CCC(C(=O)NO)(S(=O)(=O)c3ccc(N4CCC(C(=O)N5CC(C)CC(C)C5)CC4)cc3)CC2)CC1 (centres unmarked) [Example 305] | > 10 | 0.0286 | > 10000 | 
15 | O=C(Nc1ccc(F)cc1)OC1CCN(c2ccc(S(=O)(=O)C3(C(=O)NO)CCOCC3)cc2)CC1 [Example 191] | > 10 | 0.0035 | 25.1 | 
16 | CN(Cc1cccnc1)C(=O)C1CCN(c2ccc(S(=O)(=O)C3(C(=O)NO)CCOCC3)cc2)CC1 [Example 497] | > 10 | 0.05 | 8000 | 

Row | Compound | IC50 (MMP-1; [1]) [µM] | IC50 (MMP-13; [2]) [µM] | IC50 (MMP-2; [3]) [nM] | further results
17 | O=C(NO)C1(S(=O)(=O)c2ccc(N3CCC(SCc4ccc(OC(F)(F)F)cc4)CC3)cc2)CCN(C2CC2)CC1 [Example 454] | > 10 |  |  | 
18 | O=C(C1CCN(c2ccc(S(=O)(=O)C3(C(=O)NO)CCOCC3)cc2)CC1)N1CCN(c2ccccn2)CC1 [Example 26] |  |  |  | IC50 (MMP-1): > 10 µM; IC50 (MMP-2; read-out: MMP-2 IC50): 3600 nM
19 | CN(C)c1ccc(C(=O)C2CCN(c3ccc(S(=O)(=O)C4(C(=O)NO)CCOCC4)cc3)CC2)cc1 [Example 802] | > 10 | 0.0023 |  | 
20 | CC1CC(C)CN(C(=O)C2CCN(c3ccc(S(=O)(=O)C4(C(=O)NO)CCN(C(=O)CN5CCN(CCN(C)C)CC5)CC4)cc3)CC2)C1 (centres unmarked) [Example 308] | > 10 | 0.04 |  | 
21 | O=C(NO)C1(S(=O)(=O)c2ccc(N3CCC(SCc4cccc(C(F)(F)F)c4)CC3)cc2)CCN(C2CC2)CC1 [Example 463] | > 10 |  |  | 
22 | COc1ccc(C(=O)C2CCN(c3ccc(S(=O)(=O)C4(C(=O)NO)CCN(C(=O)c5ccco5)CC4)cc3)CC2)cc1 [Example 436] | > 10 |  |  | 
23 | C[C@@H]1C[C@H](C)CN(C(=O)C2CCN(c3ccc(S(=O)(=O)C4(C(=O)NO)CCNCC4)cc3)CC2)C1 [Example 240, rel-4-[[4-[4-[[(3R,5S)-3,5-Dimethyl-1-piperidinyl]carbonyl]-1-piperidinyl]phenyl]sulfonyl]-N-hydroxy-4-piperidinecarboxamide, Monohydrochloride] | > 10 | 0.0769 |  | 
24 | O=C(NO)C1(S(=O)(=O)c2ccc(N3CCC(SCc4ccccc4Cl)CC3)cc2)CCN(C2CC2)CC1 [Example 461] | > 10 |  |  | 
25 | O=C(NO)C1(S(=O)(=O)c2ccc(N3CCC(SCc4ccccc4)CC3)cc2)CCN(C2CC2)CC1 [Example 417] | > 10 | 0.0007 |  | 
26 | C[C@H]1C[C@H](C)CN(C(=O)C2CCN(c3ccc(S(=O)(=O)C4(C(=O)NO)CCNCC4)cc3)CC2)C1 (relative stereo) [Example 238, rel-4-[[4-[4-[[(3R,5R)-3,5-Dimethyl-1-piperidinyl]carbonyl]-1-piperidinyl]phenyl]sulfonyl]-N-hydroxy-4-piperidinecarboxamide, Monohydrochloride] |  |  |  | IC50 (MMP-1): > 10 µM; IC50 (MMP-13): 0.08 µM
27 | Cn1ccc2cc(C(=O)C3CCN(c4ccc(S(=O)(=O)C5(C(=O)NO)CCOCC5)cc4)CC3)ccc21 [Example 867] | > 10 | 0.0165 |  | 
28 | C[C@@H]1CN(C(=O)C2CCN(c3ccc(S(=O)(=O)C4(C(=O)NO)CCOCC4)cc3)CC2)C[C@H](C)N1 [Example 46] |  |  |  | IC50 (MMP-1): > 10 µM; IC50 (MMP-2; MMP-2 IC50 (nM)): 5700 nM
29 | CC1CC(C)CN(C(=O)C2CCN(c3ccc(S(=O)(=O)C4(C(=O)NO)CCN(C(=O)CNCC(F)(F)F)CC4)cc3)CC2)C1 (centres unmarked) [Example 310] | > 10 | 0.06 |  | 
30 | O=C(NO)C1(S(=O)(=O)c2ccc(N3CCC(SCc4ccc(OC(F)(F)F)cc4)CC3)cc2)CCNCC1 [Example 460] | > 10 |  |  | 
31 | CN(C)CCN1CCN(C(=O)C2CCN(c3ccc(S(=O)(=O)C4(C(=O)NO)CCOCC4)cc3)CC2)CC1 [Example 23] |  |  |  | IC50 (MMP-1): > 10 µM; IC50 (MMP-13): 0.09 µM
32 | COc1ccc(C(=O)C2CCN(c3ccc(S(=O)(=O)C4(C(=O)NO)CCNCC4)cc3)CC2)cc1 [Example 437] | > 10 |  |  | 
